This is an account of results in paper PMC4113456, “Atypical Signaling and Functional Desensitization Response of MAS Receptor to Peptide Ligands” (PLoS ONE, 2014).

One data set has as its target T1, MAS F112A mutant (Homo sapiens, UniProt P04201, F112A).
T1 construct: expressed in transfected cells
T1 sequence (P04201 1-325 F112A): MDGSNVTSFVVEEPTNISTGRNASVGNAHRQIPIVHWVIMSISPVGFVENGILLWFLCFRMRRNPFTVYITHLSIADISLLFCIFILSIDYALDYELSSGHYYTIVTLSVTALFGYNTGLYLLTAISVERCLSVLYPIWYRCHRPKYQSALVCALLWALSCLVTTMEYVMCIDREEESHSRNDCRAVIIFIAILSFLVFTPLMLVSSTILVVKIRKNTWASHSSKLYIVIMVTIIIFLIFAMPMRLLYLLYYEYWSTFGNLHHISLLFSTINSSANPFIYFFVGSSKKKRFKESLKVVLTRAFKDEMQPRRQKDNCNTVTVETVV
The experiment in a line: Calcium assay, F112A MAS mutant stable cell line. Format: cell-based.

Another data set addresses T2, MAS I191A mutant (Homo sapiens, UniProt P04201, I191A).
T2 construct: expressed in transfected cells
T2 sequence (P04201 1-325 I191A): T1 sequence (P04201 1-325 F112A) with A112F, I191A
The experiment in a line: Calcium assay, I191A MAS mutant stable cell line. Format: cell-based.

Data set [1] can be described thus: Solubility of ligand stock in assay buffer. The class given is physicochemical. The conditions noted are these: 5x ligand stock in D-PBS, at greater than 50 µM.
Data set [2] has as its target T3, MAS (Homo sapiens, UniProt P04201).
T3 construct: expressed in transfected cells
T3 sequence (P04201 1-325): T1 sequence (P04201 1-325 F112A) with A112F
Details: method as in ref [9] (a number printed in a supplementary file, which may have a reference list of its own: not looked up in the article's list). Particulars: ref [9], read-out: EC50 (IP1 assay); cited from earlier work.

For data set [3], the target named is T3, MAS. Also on record: method as in ref [9] (a number printed in a supplementary file, which may have a reference list of its own: not looked up in the article's list). The conditions noted are these: ref [9], read-out: EC50 (cAMP assay); cited from earlier work.
Data set [4] has as its system MAS. Details: method as in ref [9] (a number printed in a supplementary file, which may have a reference list of its own: not looked up in the article's list). The conditions noted are these: Rat MAS; ref [9]; read-out: EC50 (cAMP assay); cited from earlier work.

Residue numbers refer to the chain shown, from its start. Like-named read-outs stand apart in the source and are kept apart here.

`COc1cc([N+](=O)[O-])ccc1S(=O)(=O)N1CC(CN2CCN(c3ccccn3)CC2)C(c2cccc(F)c2)C1` (centres unmarked) [AR-agonist]: on MAS F112A mutant, the “EC50, Calcium assay” value is recorded as “cbd”. For the same molecule, the “t1/2, Calcium assay” value at MAS F112A mutant was “cbd”; at MAS I191A mutant it was 1.14 ± 0.0883 min. Also, the EC50 on MAS I191A mutant is 17600 ± 3800 nM; at MAS [2], 350 nM; on MAS [3], 720 nM; in the data set with MAS [4], 1710 nM. In data set [1], the Solubility result was “solubility issues”.
